The source of these data is publication PMC12508057, “Discovery of ETI41 and ETI60: novel selective endosomal Toll-like receptor inhibitors for the treatment of autoimmune diseases” (Experimental & Molecular Medicine, 2025).

The term IC50 denotes the concentration that inhibits the measured activity by half.

Experiment [1] has as its target T1, mTLR3 (Mus musculus, UniProt Q99MB1).
T1 construct: reduction in TNF-α secretion in mouse RAW 264.7 cells; endogenous in cells; host or cells: RAW 264.7
The experiment in a line: TLR3 inhibition, poly I:C-induced mTNFα in RAW 264.7. Format: cell-based. The procedure: (§1) RAW 264.7 and differentiated THP-1 cells were seeded into 96-well plates at 2 × 10^4 cells per well, while Daudi cells were seeded at 5 × 10^4 cells per well. After stabilization for 30 min, cells were stimulated with specific TLR agonists for 4 or 24 h. Supernatants were diluted and transferred to precoated ELISA plates to measure TNF-α secretion using kits from Invitrogen. Optical absorbance was measured using a BioTek Synergy HTX multimode microplate reader, and data were interpolated using BioTek Gen5 software.
One-tailed paired Student’s t-tests were performed using Microsoft Excel (Microsoft). Semi-logarithmic conversions and nonregression curve analyses for calculating 50% lethal concentration (LC50) and 50% inhibitory concentration (IC50) values were conducted using GraphPad Prism 7.0 (GraphPad). The therapeutic index was calculated as […]. Animal experimental results are expressed as mean ± standard deviation and analyzed using SPSS v.20 (IBM SPSS Statistics). Homogeneity of variance was assessed using Levene’s test. […]

Experiment [2] has as its target T2, hTLR7 (Homo sapiens, UniProt Q9NYK1).
T2 construct: human B lymphoblasts (Daudi cells); endogenous in cells; host or cells: Daudi
The experiment in a line: TLR7 inhibition, R848-induced hTNFα in Daudi. Format: cell-based. Here is the method:
as §1
One-tailed paired Student’s t-tests were performed using Microsoft Excel (Microsoft). Semi-logarithmic conversions and nonregression curve analyses for calculating 50% lethal concentration (LC50) and 50% inhibitory concentration (IC50) values were conducted using GraphPad Prism 7.0 (GraphPad). The therapeutic index was calculated as […]. Animal experimental results are expressed as mean ± standard deviation and analyzed using SPSS v.20 (IBM SPSS Statistics). Homogeneity of variance was assessed using Levene’s test.
[…] Data are from at least three independent experiments (n = 3) and statistical differences between the induced case and other cases were analyzed and verified using a one-tailed Student’s t-test (*P < 0.05, **P < 0.01, ***P < 0.001).

In experiment [3] the test system is IMQ-induced (TLR7) gene expression in RAW 264.7 cells. Put plainly: 3' mRNA sequencing of IMQ-stimulated RAW 264.7 cells. It is filed as cell-based, mouse. Conditions: for Expression of IMQ-induced inflammation-associated genes: RAW 264.7, 2 and 4 h; for Differentially expressed genes (DEGs) / Downregulated DEGs / Upregulated DEGs: RAW 264.7, IMQ-stimulated. Here is the method:
RNA quality was assessed using a TapeStation 4000 system (Agilent Technologies). Libraries were prepared using a QuantSeq 3 mRNA-Seq Library Prep Kit FWD (Lexogen) and sequenced using a NextSeq 550 System (Illumina). Sequences were trimmed using BBDuk and aligned with Bowtie2, and the reads were counted using Bedtools[21]–[23]. Data were normalized using edgeR software (Ebiogen) and analyzed for gene function using the Database for Annotation, Visualization, and Integrated Discovery) and for pathway analysis using KEGG Mapper[24],[25]. RNA-seq data were deposited in the Gene Expression Omnibus database under accession number GSE255890.
Fig. 2 ETI41 and ETI60 inhibit TLR7- and TLR9-dependent downstream signaling. a, b Western blot analysis was used to quantify the protein levels of phosphorylated p-ERK, p-JNK, p38, Iκ-Bα and p65. RAW 264.7 cells were treated with 5 μM or 10 μM of ETI41 or ETI60, followed by exposure to IMQ (2 μg/ml) for 20 or 30 min (a) and ODN2395 (1 μM) for 40 or 50 min (b) respectively. β-Actin served as a loading control for the cytosol, while lamin A/C was utilized as a loading control for the nucleus. c Protein levels of IRF7 were measured after treatment with 5 μM of ETI41 or ETI60, followed by treatment with ODN2395 (1 μM) for 6 or 8 h. d BMDC cells from ex vivo were used to analyze mRNA expression levels of IL-12p40, IFN-β and CD40. Cells were pretreated with ETI41 (0.2 and 1 μM), followed by treatment with ODN2395 (1 μM) for 3 h. All experiments were independently conducted three times. Statistical differences between the induced and other cases were analyzed and verified using a one-tailed Student’s t-test (*P < 0.05, **P < 0.01, ***P < 0.001). e–g The TLR7 agonist IMQ (1 μM) was used in 3’ RNA-seq analysis to induce signaling associated with immune responses in RAW 264.7 cells. […] (e–g) depict changes in gene expression categories without pretreatment (e) after pretreatment with ETI41 (f) or after pretreatment with ETI60 (g) followed by IMQ stimulation. h Heatmaps depicting gene expression patterns within the inflammation and immune response categories (fold change >2.5, P < 0.05) of ETI41 or ETI60, dividing the time after IMQ treatment into 0, 2 and 4 h, respectively. […]

T1 sequence (Q99MB1 26-905): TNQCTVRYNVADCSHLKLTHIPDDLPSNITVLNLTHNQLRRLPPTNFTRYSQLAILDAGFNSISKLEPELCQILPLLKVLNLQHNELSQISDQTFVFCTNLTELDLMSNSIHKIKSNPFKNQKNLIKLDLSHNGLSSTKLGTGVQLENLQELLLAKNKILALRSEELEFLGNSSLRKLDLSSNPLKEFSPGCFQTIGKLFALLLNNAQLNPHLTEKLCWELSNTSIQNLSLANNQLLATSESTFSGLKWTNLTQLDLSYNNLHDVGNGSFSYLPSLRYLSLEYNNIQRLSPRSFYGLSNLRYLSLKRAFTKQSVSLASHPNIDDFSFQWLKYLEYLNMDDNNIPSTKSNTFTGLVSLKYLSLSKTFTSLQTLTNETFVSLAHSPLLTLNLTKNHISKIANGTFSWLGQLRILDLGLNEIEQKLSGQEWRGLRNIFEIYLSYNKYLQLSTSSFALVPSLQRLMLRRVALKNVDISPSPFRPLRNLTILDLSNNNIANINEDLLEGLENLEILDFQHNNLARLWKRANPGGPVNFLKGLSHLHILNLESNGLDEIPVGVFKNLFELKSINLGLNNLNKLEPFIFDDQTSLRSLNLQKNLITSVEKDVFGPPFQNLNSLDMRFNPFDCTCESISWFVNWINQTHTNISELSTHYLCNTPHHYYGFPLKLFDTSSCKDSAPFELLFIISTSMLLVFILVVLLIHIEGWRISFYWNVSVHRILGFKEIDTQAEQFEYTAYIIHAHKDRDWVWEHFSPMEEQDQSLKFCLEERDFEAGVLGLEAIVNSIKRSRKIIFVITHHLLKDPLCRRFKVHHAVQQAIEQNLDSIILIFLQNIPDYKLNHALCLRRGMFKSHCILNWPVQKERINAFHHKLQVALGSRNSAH
T2 sequence (Q9NYK1 27-1049): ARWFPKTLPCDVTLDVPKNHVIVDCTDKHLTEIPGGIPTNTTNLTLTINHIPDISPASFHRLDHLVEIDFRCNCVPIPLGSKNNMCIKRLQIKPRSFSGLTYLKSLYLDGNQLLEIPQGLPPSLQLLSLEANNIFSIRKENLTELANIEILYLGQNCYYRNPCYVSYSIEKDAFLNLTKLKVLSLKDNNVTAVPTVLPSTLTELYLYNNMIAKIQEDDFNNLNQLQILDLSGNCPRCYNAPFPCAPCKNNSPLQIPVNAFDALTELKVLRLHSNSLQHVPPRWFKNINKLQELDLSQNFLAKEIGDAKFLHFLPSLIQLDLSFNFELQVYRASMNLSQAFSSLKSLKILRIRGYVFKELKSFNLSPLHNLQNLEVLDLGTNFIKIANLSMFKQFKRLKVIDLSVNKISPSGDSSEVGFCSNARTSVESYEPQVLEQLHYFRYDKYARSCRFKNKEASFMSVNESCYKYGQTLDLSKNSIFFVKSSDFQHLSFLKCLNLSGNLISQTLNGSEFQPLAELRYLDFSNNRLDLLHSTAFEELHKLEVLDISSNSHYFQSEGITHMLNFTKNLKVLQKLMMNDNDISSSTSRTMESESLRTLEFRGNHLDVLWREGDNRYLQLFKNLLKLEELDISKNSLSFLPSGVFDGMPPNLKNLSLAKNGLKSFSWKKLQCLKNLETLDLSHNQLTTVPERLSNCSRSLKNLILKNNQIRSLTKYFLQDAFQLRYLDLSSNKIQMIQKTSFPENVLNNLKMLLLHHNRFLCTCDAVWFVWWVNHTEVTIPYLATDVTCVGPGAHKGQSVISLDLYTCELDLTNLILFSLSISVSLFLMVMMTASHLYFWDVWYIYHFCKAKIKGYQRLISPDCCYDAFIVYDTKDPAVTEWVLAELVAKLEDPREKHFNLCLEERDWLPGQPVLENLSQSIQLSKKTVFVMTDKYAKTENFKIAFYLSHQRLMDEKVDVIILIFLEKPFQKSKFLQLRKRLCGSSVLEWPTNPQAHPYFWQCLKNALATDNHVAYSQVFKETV

Turning to `Cc1cc2c(N)c3c(nc2n1CCCN(C)C)CCCCCC3` [ETI41], the IC50 in experiment [1] came out at 993 nM. In addition, in experiment [2], the IC50 was 947 nM. Moreover, in experiment [3], the “Expression of IMQ-induced inflammation-associated genes” value is reported as “markedly reduced”, the “Differentially expressed genes (DEGs)” value is given as 509, the “Downregulated DEGs” value was determined as 296 and the “Upregulated DEGs” value was 213.

With `COc1ccc2c3c(N)c4c(nc3n(CCCN(C)C)c2c1)CCCC4` [ETI60], the IC50 in experiment [1] came to 372 nM. For the same compound, the IC50 in experiment [2] was determined as 668 nM. For the same compound, in experiment [3], the “Expression of IMQ-induced inflammation-associated genes” value is reported as “markedly reduced”, the “Differentially expressed genes (DEGs)” value came out at 727, the “Downregulated DEGs” value was 380 and the “Upregulated DEGs” value is 347.
